In ChEMBL document CHEMBL1201862, “PubChem BioAssay data set” (2004):
Activity calls are given as the source filed them.

How the values were obtained:
[1] = biological target: Kallikrein-7 (Homo sapiens, UniProt P49862); assay: Fluorescence Intensity-based biochemical primary high throughput dose response assay to identify activators of kallikrein-7 (K7) zymogen.
[2] = biological target: Voltage-gated inwardly rectifying potassium channel KCNH2 (Homo sapiens, UniProt Q12809); assay: concentration-dependent hERG rescue from blockers – cell-based, thallium flux, dose response (AID 2121); assay type: ADME
Sequence of Voltage-gated inwardly rectifying potassium channel KCNH2 (Q12809 whole entry): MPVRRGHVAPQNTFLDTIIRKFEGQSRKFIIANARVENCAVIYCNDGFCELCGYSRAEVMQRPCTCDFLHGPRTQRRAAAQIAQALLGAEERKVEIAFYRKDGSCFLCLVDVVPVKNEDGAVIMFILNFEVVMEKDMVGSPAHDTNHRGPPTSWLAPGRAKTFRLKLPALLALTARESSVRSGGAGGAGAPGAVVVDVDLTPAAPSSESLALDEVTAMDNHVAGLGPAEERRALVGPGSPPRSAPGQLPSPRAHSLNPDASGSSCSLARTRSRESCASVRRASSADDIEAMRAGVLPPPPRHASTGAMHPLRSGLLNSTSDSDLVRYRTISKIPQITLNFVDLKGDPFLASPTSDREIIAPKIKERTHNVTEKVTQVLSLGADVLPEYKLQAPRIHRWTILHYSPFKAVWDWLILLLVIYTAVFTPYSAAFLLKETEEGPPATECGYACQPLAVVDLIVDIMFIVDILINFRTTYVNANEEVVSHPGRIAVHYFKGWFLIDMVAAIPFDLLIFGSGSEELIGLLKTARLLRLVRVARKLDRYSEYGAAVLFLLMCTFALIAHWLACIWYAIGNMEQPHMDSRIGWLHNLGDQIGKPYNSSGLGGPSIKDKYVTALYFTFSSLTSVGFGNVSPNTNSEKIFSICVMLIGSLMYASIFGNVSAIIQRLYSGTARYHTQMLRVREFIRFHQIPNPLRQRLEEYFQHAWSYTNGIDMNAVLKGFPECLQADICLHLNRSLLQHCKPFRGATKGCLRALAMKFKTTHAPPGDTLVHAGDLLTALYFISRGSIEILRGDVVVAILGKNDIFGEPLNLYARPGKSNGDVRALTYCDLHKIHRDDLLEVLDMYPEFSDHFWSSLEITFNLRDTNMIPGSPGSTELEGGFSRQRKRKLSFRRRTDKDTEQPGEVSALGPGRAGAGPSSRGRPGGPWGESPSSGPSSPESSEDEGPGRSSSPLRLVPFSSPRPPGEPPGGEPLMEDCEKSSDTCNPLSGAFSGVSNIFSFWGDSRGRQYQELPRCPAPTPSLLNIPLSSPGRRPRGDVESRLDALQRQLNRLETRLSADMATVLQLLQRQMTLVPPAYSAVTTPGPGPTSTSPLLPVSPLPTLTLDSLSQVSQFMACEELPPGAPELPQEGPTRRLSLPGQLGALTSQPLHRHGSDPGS

[3] = biological target: Luciferin 4-monooxygenase (Photinus pyralis, UniProt P08659); assay: Counter Screen for Luciferase-based Assay Positives. [Related pubchem assays: 620, 618, 411 ]
Sequence of Luciferin 4-monooxygenase (P08659 whole entry): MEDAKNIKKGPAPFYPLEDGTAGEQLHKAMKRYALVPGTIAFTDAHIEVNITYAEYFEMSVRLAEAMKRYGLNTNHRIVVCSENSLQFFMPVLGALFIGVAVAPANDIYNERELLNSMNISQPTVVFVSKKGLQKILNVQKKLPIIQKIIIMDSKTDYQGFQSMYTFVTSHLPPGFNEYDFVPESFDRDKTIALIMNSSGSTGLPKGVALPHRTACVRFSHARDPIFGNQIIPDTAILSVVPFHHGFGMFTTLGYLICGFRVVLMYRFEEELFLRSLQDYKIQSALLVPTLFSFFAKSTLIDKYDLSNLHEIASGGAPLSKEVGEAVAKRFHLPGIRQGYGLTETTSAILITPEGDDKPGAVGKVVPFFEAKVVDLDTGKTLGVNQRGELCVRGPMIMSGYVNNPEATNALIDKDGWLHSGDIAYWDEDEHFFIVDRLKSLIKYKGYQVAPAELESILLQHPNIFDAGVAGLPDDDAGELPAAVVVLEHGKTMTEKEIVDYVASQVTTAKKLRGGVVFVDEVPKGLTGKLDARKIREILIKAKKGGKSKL

[4] = tested on: HT-1080; assay: HT1080 cell viability loss – fluorescence readout (AID 620); assay type: functional, cell-based; conditions: Homo sapiens
[5] = tested on: Streptococcus; assay: GAS UMAA2166 growth inhibition – luminescence, BacTiterGlo, counter-screen for streptokinase expression inhibitor project, dose response (AID 1915); assay type: functional, organism-based;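 further: potency for reduction of bacterial viability or growth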
[6] = biological target: T1, Streptokinase A (Streptococcus pyogenes serotype M1, UniProt P10520); assay: viability-normalized secreted streptokinase activity reduction – plasminogen activation absorbance, OD405, dose response (AID 1914); assay type: functional, Streptococcus pyogenes M1 GAS;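 further: secreted streptokinase activity via plasminogen activation per viability signal from cell pellet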
T1 sequence (P10520 whole entry): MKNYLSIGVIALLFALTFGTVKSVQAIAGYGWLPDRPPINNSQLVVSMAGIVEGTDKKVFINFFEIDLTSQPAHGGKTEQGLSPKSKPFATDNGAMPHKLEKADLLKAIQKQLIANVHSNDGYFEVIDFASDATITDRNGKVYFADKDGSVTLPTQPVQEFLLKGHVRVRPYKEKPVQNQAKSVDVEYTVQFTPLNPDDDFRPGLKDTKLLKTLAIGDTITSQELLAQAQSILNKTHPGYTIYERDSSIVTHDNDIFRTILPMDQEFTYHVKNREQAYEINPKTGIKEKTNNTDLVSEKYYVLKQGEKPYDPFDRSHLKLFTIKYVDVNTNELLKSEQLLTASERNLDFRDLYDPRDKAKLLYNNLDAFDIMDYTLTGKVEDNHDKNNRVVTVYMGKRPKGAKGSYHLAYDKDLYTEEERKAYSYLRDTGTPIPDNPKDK

[7] = biological target: Eukaryotic translation initiation factor 4E (Mus musculus, UniProt P63073); assay: blockers of eIF4G binding by eIF4E – biochemical, TR-FRET, dose response (AID 855); assay type: functional;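 further: potency for disrupting eIF4E binding to eIF4GI seen as loss of FRET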
Sequence of Eukaryotic translation initiation factor 4E (P63073 whole entry): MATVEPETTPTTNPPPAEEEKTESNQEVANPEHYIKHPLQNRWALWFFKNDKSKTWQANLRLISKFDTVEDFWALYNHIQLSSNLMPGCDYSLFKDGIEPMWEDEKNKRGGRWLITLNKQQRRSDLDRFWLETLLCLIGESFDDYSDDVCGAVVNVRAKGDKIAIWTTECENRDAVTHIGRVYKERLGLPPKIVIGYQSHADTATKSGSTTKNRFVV

[8] = tested on: Streptococcus sp. 'group A'; assay: Streptococcus pyogenes SK(-)GAS viability under kanamycin – luminescence, BacTiterGlo, confirmation, counter-screen for streptokinase expression inhibitor project, dose response (AID 1900); assay type: functional, organism-based
[9] = Counterscreen for IDE inhibitors: Luminescence-based cell-based high throughput dose response assay to identify compounds that are cytotoxic to HEK cells. [Related pubchem assays: 434962 (Primary screen (IDE inhibitors in singlicate)), 449730 (Counterscreen (Cytotoxicity in triplicate)), 435028 (Confirmation (IDE inhibitors in triplicate)) …; assay type: functional; conditions: HEK293
[10] = biological target: T2, Insulin-degrading enzyme (Homo sapiens, UniProt P14735); assay: Dose Response: Fluorescence polarization-based cell-based high throughput dose response assay for inhibitors of insulin-degrading enzyme (IDE). [Related pubchem assays: 434962 (Primary screen (IDE inhibitors in singlicate)), 449730 (Counterscreen (Cytotoxicity in triplicate)), 435028 (Confirmation (IDE inhibitors in triplicate)), 434984 (Summary …; assay type: functional
T2 sequence (P14735 whole entry): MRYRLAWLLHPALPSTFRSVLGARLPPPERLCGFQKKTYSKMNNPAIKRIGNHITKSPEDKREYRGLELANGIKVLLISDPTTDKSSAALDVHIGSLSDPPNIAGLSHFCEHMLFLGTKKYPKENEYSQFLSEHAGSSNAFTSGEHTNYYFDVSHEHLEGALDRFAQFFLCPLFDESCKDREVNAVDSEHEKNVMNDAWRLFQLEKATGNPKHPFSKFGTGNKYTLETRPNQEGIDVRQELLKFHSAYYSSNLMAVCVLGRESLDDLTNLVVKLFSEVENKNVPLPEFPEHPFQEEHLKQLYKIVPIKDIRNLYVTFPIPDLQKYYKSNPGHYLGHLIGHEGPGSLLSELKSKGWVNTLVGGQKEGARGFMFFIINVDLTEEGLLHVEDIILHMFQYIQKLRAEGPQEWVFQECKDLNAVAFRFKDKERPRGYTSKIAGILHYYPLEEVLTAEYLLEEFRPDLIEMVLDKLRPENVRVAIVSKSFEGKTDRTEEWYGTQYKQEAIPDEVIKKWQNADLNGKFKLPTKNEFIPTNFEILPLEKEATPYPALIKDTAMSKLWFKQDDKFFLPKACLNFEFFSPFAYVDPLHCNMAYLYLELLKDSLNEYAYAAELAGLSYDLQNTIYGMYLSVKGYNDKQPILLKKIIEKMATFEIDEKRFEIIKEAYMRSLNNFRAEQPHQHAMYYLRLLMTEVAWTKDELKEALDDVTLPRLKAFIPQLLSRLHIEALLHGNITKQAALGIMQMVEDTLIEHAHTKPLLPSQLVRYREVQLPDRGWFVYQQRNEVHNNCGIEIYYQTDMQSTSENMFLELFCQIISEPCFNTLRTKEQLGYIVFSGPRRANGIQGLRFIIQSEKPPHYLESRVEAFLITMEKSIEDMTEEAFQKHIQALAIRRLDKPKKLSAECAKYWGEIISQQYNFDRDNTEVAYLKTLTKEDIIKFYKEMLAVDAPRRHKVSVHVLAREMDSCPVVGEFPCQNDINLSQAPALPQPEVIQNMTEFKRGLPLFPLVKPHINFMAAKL

[11] = potency of ADAM10 substrate cleavage blockers – biochemical, QFRET, dose response (AID 743254);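 further: ADAM10 enzyme with the DM2 quenched FRET peptide as substrate; EDANS fluorescence gain as the protease cuts the substrate; inhibitor potency against ADAM10 proteolytic activity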
[12] = biological target: Disintegrin and metalloproteinase domain-containing protein 17 (Homo sapiens, UniProt P78536); assay: inhibition of ADAM17 substrate cleavage – biochemical, quenched FRET substrate, counter-screen for ADAM10 exosite inhibitor project, dose response (AID 743253)
Sequence of Disintegrin and metalloproteinase domain-containing protein 17 (P78536 whole entry, the tested form may be a part): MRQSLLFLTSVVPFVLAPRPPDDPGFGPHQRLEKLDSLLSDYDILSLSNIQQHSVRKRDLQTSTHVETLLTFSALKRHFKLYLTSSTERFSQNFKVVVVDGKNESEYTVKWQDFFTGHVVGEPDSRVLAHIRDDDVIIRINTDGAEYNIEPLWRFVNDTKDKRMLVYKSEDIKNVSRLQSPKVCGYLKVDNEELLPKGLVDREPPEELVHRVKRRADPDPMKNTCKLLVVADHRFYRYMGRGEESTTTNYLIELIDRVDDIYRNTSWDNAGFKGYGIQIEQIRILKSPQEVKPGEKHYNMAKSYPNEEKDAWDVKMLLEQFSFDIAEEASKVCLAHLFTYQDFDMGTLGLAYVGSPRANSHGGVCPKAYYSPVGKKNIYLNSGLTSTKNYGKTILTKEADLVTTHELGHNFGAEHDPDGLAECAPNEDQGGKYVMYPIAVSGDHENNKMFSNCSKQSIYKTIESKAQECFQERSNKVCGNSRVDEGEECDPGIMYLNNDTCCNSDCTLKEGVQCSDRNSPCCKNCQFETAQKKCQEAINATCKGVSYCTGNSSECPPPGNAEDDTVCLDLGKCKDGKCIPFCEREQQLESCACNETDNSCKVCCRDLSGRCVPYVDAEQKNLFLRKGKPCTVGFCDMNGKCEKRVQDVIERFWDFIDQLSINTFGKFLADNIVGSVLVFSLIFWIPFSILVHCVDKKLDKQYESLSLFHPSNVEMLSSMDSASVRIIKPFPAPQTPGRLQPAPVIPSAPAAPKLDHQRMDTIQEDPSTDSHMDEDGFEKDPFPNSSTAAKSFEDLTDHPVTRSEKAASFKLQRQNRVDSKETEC

[13] = biological target: T3, Polyadenylate-binding protein 1 (Homo sapiens, UniProt P11940); assay: MLLE domain peptide-binding blockers, IC50 – biochemical, fluorescence polarization, FITC-PAM2 peptide, dose response (AID 602259); assay type: functional; conditions: read-out: IC50_Mean
T3 sequence (P11940 whole entry, the tested form may be a part): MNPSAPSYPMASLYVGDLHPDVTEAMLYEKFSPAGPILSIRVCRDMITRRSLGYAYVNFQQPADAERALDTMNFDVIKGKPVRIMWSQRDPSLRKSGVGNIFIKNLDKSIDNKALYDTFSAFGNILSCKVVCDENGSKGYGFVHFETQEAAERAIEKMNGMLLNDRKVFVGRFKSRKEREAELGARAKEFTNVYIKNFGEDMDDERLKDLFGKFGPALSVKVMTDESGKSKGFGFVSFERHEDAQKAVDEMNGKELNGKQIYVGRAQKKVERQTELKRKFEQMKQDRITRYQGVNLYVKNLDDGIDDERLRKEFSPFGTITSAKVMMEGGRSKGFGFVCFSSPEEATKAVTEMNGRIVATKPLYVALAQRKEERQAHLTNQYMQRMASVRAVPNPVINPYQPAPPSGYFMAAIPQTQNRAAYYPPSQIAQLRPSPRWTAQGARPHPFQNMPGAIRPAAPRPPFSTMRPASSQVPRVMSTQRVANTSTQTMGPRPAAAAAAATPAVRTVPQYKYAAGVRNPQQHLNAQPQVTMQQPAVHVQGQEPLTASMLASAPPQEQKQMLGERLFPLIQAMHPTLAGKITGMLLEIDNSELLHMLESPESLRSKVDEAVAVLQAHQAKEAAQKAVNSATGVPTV

[14] = biological target: T3, Polyadenylate-binding protein 1; assay: MLLE binding blockers, Cy5 peptide tracer – biochemical, fluorescence polarization, Cy5-PAM2 peptide, secondary, miRNA deadenylation inhibitor project, dose response (AID 602260); assay type: functional; conditions: read-out: IC50_Mean
[15] = biological target: Prothrombin (Homo sapiens, UniProt P00734); assay: Thrombin 1536 HTS Dose Response Confirmation. [Related pubchem assays: 1046 (Thrombin 1536 HTS; hits were confirmed in this assay)]; assay type: functional
[16] = biological target: DNA dC->dU-editing enzyme APOBEC-3G (Homo sapiens, UniProt Q9HC16); assay: Dose Response confirmation of small molecule APOBEC3G DNA Deaminase Inhibitors via a fluorescence-based single-stranded DNA deaminase assay. [Related pubchem assays (depositor defined):AID493012, AID493028]; assay type: functional
Sequence of DNA dC->dU-editing enzyme APOBEC-3G (Q9HC16 whole entry): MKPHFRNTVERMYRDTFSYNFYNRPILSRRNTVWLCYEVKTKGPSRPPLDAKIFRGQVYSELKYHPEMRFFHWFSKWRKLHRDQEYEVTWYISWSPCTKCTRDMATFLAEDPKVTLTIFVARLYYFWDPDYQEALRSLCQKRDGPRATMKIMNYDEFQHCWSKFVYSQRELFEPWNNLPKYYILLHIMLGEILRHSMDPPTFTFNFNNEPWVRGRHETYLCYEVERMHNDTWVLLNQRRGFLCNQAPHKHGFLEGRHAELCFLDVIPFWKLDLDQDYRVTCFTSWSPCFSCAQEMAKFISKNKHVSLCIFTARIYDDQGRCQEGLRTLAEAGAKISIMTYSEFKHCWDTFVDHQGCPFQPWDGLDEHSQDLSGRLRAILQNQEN

[17] = growth inhibition of PfATP4-mutant resistant parasites – NITD609-resistant line, SYBR Green, dry powder, dose response (AID 1159571); assay type: functional, cell-based;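 further: parasites synchronized at ring stage by sorbitol before testing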
[18] = growth inhibition of yeast DHODH-expressing 3D7 parasites – SYBR Green, dry powder samples, dose response (AID 1159570); assay type: functional, cell-based;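 further: parasite growth measured after 72 hours of compound exposure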
[19] = biological target: Paired box protein Pax-8 (Homo sapiens, UniProt Q06710); assay: PAX8 transcriptional activity inhibition in RMG-I – RMG-I cells, luciferase, cherry-pick, dose response (AID 687027); assay type: functional, cell-based;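 further: luciferase reporter driven by Pax8 target thyroperoxidase promoter measured by SteadyGlo luminescence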
Sequence of Paired box protein Pax-8 (Q06710 whole entry): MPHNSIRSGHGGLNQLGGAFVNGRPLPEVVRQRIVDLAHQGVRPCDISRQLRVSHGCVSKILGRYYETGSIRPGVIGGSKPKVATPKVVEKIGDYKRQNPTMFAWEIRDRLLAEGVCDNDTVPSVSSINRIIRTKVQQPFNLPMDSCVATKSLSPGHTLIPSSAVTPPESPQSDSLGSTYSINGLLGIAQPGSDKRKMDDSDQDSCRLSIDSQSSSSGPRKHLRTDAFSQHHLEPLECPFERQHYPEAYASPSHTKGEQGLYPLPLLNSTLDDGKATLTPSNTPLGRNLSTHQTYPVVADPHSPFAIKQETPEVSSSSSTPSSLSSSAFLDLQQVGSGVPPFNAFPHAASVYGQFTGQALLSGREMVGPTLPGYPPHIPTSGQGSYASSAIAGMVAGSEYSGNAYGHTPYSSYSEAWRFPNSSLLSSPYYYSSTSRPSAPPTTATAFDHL

[20] = IGROV1 cell killing – plate reader, dry powder samples, PAX8 inhibitor project, dose response (AID 743043); assay type: functional, cell-based; conditions: IGROV-1
[21] = Dd2 malaria parasite growth inhibition potency – SYBR Green, dry powder samples, dose response (AID 1159566); assay type: functional, cell-based;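 further: potency for growth inhibition with lower SYBR green DNA signal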
[22] = OVCAR-3 cell viability loss – plate reader, dry powder samples, PAX8 inhibitor project, dose response (AID 743044); assay type: functional, cell-based
[23] = OVCAR8 cell viability loss – plate reader, dry powder samples, PAX8 project, dose response (AID 743197); assay type: functional, cell-based; conditions: OVCAR-8
[24] = toxicity to human HepG2 hepatoma cells – cell-based, plate reader, dry powder samples, cytotoxicity control, dose response (AID 1159569); assay type: functional;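 further: inhibitor potency with signal falling toward the positive control level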
[25] = tested on: HEK293; assay: cells; conditions: Homo sapiens
[26] = tested on: HEK293; assay: cells; conditions: Homo sapiens; remark: listed apart in the source
[27] = P. falciparum Dd2 growth inhibitors, dose response, SYBR Green, cherry-picked samples (AID 1159567); assay type: functional, cell-based
[28] = A2780 cell killing – plate reader, dry powder samples, cytotoxicity control, dose response (AID 743046); assay type: functional, cell-based
[29] = toxicity toward immortalized ovarian surface epithelium – cell-based, plate reader, dry powder samples, cytotoxicity control for PAX8 inhibitor project, dose response (AID 743045); assay type: functional
[30] = biological target: Cytochrome P450 2C19 (Homo sapiens, UniProt P33261); assay: Cytochrome panel assay with activity outcomes. Panel member name: p450-cyp2c19 Compounds with AC50 equal or less than 10 uM are considered active; assay type: functional; conditions: read-out: AC50
Sequence of Cytochrome P450 2C19 (P33261 whole entry): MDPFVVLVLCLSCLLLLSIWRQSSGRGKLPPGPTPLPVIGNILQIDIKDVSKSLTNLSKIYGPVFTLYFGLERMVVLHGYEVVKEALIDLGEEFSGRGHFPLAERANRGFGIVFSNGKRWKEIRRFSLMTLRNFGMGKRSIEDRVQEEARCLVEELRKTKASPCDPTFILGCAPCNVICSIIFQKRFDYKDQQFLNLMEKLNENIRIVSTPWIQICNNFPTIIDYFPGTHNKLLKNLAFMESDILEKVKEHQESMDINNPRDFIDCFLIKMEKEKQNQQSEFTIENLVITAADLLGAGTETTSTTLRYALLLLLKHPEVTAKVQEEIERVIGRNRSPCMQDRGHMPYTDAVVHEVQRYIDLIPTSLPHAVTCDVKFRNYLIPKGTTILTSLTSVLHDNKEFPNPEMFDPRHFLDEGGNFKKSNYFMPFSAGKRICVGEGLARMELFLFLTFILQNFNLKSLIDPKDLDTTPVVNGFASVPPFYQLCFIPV

[31] = CellTiter-Glo luminescence survival assay, SW480 colon tumor line, concentration-response curve, half-maximal inhibitory concentration (AID 1117338); assay type: functional
[32] = cytotoxicity toward Colo320 cells – cell-based, CellTiter-Glo luminescence, IC50, dose response (AID 1117334); assay type: functional; conditions: COLO 320
[33] = SNU-C1 cell viability reduction, dose response, CellTiter-Glo luminescence (AID 1117323); assay type: functional, cell-based
[34] = cytotoxicity toward HCT116 cells – cell-based, CellTiter-Glo luminescence, IC50, dose response (AID 1117332); assay type: functional; conditions: HCT-116
[35] = RKO cell viability reduction, dose response, CellTiter-Glo luminescence (AID 1117322); assay type: functional
[36] = Reduced DLD-1 viability, concentration-response, CellTiter-Glo luminescence (AID 1117352); assay type: functional
[37] = cytotoxicity toward HT-29 cells – cell-based, CellTiter-Glo luminescence, IC50, dose response (AID 1117330); assay type: functional

Sequence of Kallikrein-7 (P49862 whole entry): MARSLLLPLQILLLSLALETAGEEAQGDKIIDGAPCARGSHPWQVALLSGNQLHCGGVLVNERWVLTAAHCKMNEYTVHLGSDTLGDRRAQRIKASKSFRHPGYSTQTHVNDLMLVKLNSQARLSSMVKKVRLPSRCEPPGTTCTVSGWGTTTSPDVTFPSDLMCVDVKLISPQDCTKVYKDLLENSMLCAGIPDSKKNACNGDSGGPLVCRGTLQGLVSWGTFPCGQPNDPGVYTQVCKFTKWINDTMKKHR

SMILES: N=c1c(C(=O)NCC2CCCO2)cc2c(=O)n3ccccc3nc2n1C1CCCC1 (centres undefined)
- EC50 [1]: 24.4 µM (inactive)

SMILES: CCN(CC)C(=S)NC(=O)c1ccc(OC)c(Br)c1
- EC50 [2]: 0.66 µM (active)

SMILES: COC(=O)c1sccc1NS(=O)(=O)c1ccc(F)cc1F
- EC50 [2]: 2.94 µM (active)

SMILES: Cc1ccc(NC(=O)N2CCc3ccccc32)cc1
- EC50 [3]: 0.72 µM (active)
- EC50 [4]: > 50 µM (not active)

SMILES: Nc1ccc2[nH]c(-c3cc(Cl)c(N)c(Cl)c3)nc2c1
- EC50 [5]: > 150 µM (not active)
- EC50 [6]: > 150 µM (not active)
- IC50 [7]: > 64 µM (inactive)
- EC50 [1]: > 69.5 µM (inactive)
- EC50 [8]: 42.8 µM (active)

SMILES: Cc1cccc(C(=O)Nc2ccnc(-c3cccnc3)n2)c1
- IC50 [9]: 35.7 µM (not active)
- IC50 [10]: 7 µM (active)

SMILES: CC1CCN(c2ccc3c(c2)S(=O)(=O)c2cccc(C(=O)NC4CC4)c2C3=O)CC1
- IC50 [9]: 22.6 µM (not active)
- IC50 [10]: > 55.9 µM (not active)

SMILES: N#Cc1c(NC(=O)CCn2cnc3ccccc3c2=O)oc(-c2ccccc2)c1-c1ccccc1
- IC50 [11]: > 69.5 µM (inactive)
- IC50 [12]: > 69.5 µM (inactive)

SMILES: O=C(NC(=S)Nc1nc(-c2ccccc2)cs1)c1cncc(Br)c1
- EC50 [2]: 11.2 µM (active)
- IC50 [13]: > 66 µM (inactive)
- IC50 [14]: > 66 µM (inactive)

SMILES: CN(C)S(=O)(=O)c1ccc(C(=O)Oc2cc(O)nc3ccccc23)cc1
- IC50 [15]: 0.812 µM (active)

SMILES: CCN(CC)c1ccc(NC(=O)COc2ccccc2C)cc1S(=O)(=O)Nc1ccccc1OC
- IC50 [11]: > 69.5 µM (inactive)
- IC50 [12]: > 69.5 µM (inactive)
- IC50 [16]: 70.1 µM (active)

SMILES: CCc1ccccc1N1C(=O)CC(=O)NC1=O
- IC50 [15]: > 50 µM (not active)

SMILES: C[C@H](CO)N1C[C@H](C)[C@H](CN(C)S(=O)(=O)c2ccc(Cl)cc2)OCc2ccccc2-c2c(n(C)c3ccccc23)C1=O
- AC50 [17]: 0.129 µM (active)
- AC50 [18]: 0.193 µM (active)
- AC50 [19]: 4.86 µM (active)
- IC50 [11]: 9.56 µM (active)
- IC50 [12]: > 69.5 µM (inactive)
- AC50 [20]: 62.3 µM (active)
- AC50 [21]: 0.0741 µM (active)
- AC50 [22]: 26.2 µM (active)
- AC50 [23]: 41.6 µM (active)
- AC50 [24]: 35.5 µM (active)
- EC50 [25]: > 59.7 µM (inactive)
- EC50 [26]: > 59.7 µM (inactive)
- AC50 [27]: < 0.35 µM (active)

SMILES: CC(c1nc2ccccc2[nH]1)n1c(=O)c(-c2cccs2)nc2ccccc21 (centres undefined)
- EC50 [1]: 8.14 µM (active)

SMILES: C[C@H](CO)N1C[C@H](C)[C@@H](CN(C)Cc2ccncc2)Oc2ccc(NC(=O)Nc3ccc(C(F)(F)F)cc3)cc2CC1=O
- AC50 [19]: 5.69 µM (active)
- AC50 [28]: 32.5 µM (active)
- AC50 [20]: 26.8 µM (active)
- AC50 [22]: 22.8 µM (active)
- AC50 [23]: > 70 µM (inactive)
- AC50 [29]: 37.6 µM (active)

SMILES: Cc1oncc1C(=O)Nc1ccc(C(F)(F)F)cc1 [LEFLUNOMIDE]
- AC50 [30]: 15.8 µM (inconclusive)
- EC50 [3]: 0.84 µM (active)
- EC50 [4]: > 50 µM (not active)

SMILES: NC(=O)N/N=C/c1ccc([N+](=O)[O-])o1 [NITROFURAZONE]
- IC50 [31]: > 20 µM (inactive)
- IC50 [32]: > 20 µM (inactive)
- IC50 [33]: > 20 µM (inactive)
- IC50 [34]: > 20 µM (inactive)
- IC50 [35]: > 20 µM (inactive)
- IC50 [36]: > 20 µM (inactive)
- IC50 [37]: > 20 µM (inactive)
